Results as given in article PMC6529454, “Development of human cGAS-specific small-molecule inhibitors for repression of dsDNA-triggered interferon expression” (Nature Communications, 2019).
Several values for one entry are separate records, joined by “and”; a condition that tells them apart may be missing. Identical values can stand only once. Like-named read-outs stand apart in the source and are kept apart here. Each block holds one molecule with its values, some of them ahead of it.

Tests used:
[1] = test system: cGAS in THP1 cells; assay: dsDNA-stimulated mRNA induction (qRT-PCR) in THP1 cells; assay type: cell-based, human; conditions: for IC50: Homo sapiens, THP-1, qRT-PCR
[2] = molecular target: m-cGAS (Mus musculus, UniProt Q8C6L5); assay: RapidFire mass spectrometry (RF-MS) cGAS activity assay, m-cGAS; conditions: for IC50: RF-MS
[3] = test system: cGAS in RAW-Lucia cells; assay: Lucia luciferase reporter assay in dsDNA-stimulated RAW-Lucia cells; conditions: read-out: cell-based IC50 in mouse RAW 264.7 cells
[4] = molecular target: h-cGAS (Homo sapiens, UniProt Q8N884); assay: RapidFire mass spectrometry (RF-MS) cGAS activity assay, h-cGAS; conditions: for IC50: RF-MS; for fold improvement of h-cGAS IC50: relative to the parent compound
[5] = Solubility in cell culture media; assay type: physicochemical
[6] = test system: h-cGAS(Y248F); assay: RF-MS assay with mutant h-cGAS(Y248F); assay type: biochemical, human; conditions: relative to native h-cGAS
[7] = test system: cGAS in primary human macrophages; assay: dsDNA-stimulated mRNA induction (qRT-PCR) in primary human macrophages; assay type: cell-based; conditions: Macrophage
[8] = test system: NF-κB pathway reporter in THP1-Dual cells; assay: SEAP NF-κB reporter assay in dsDNA-stimulated THP1-Dual cells; assay type: cell-based; conditions: Homo sapiens
[9] = test system: THP1 cells; assay: CellTiter-Glo cytotoxicity assay, THP1; assay type: cell-based; conditions: 24 h
[10] = test system: RIG-I pathway in THP1 cells; assay: hpRNA-stimulated IFNB1 mRNA induction in THP1 cells (specificity); assay type: cell-based, human; conditions: THP1, 10 µM inhibitor
[11] = molecular target: T1, soluble adenylyl cyclase (ADCY10), human sACt protein (Homo sapiens, UniProt Q96PN6); assay: Soluble adenylyl cyclase (sAC) inhibition assay; assay type: biochemical; conditions: for IC50: RF-MS readout
T1 construct: were added with 5 µl of human sACt protein
T1 sequence (Q96PN6 1-469 limits assumed): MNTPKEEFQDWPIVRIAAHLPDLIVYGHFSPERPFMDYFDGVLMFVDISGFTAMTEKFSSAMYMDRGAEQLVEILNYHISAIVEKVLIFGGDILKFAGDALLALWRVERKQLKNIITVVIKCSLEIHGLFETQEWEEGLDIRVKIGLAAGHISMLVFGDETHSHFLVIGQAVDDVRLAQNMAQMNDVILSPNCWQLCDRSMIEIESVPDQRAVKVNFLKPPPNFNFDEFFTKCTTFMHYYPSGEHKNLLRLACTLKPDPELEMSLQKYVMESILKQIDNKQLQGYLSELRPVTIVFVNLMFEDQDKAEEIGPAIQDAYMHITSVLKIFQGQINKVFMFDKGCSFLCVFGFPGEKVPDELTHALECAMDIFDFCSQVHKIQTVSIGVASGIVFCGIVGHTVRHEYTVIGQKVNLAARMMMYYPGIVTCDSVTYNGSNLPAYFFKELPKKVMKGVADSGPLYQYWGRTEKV

[12] = test system: STING pathway in THP1 cells; assay: cGAMP-stimulated IFNB1 mRNA induction in THP1 cells (specificity); assay type: cell-based, human
[13] = test system: 45-bp dsDNA; assay: dsDNA intercalation fluorescence polarization assay (acridine orange); assay type: binding
[14] = test system: STING pathway in RAW 264.7 cells; assay: cGAMP-stimulated IFNB1 mRNA induction in RAW 264.7 cells (specificity); assay type: cell-based, mouse; conditions: RAW 264.7, 10 µM J014
[15] = test system: cGAS in RAW 264.7 cells; assay: dsDNA-stimulated IFNB1 mRNA induction (qRT-PCR) in RAW 264.7 cells; assay type: cell-based; conditions: Mus musculus, RAW264.7
[16] = test system: human THP1 cells; parameters: method as in PMID 25821216; conditions: cited from earlier work
[17] = read-out: IC50 CXCL10 mRNA, primary human macrophages
[18] = read-out: IC50 IFNB1 mRNA, primary human macrophages
[19] = read-out: IC50 CXCL10 mRNA, THP1
[20] = read-out: IC50 IFNB1 mRNA, THP1

Sequence of m-cGAS (Q8C6L5 whole entry): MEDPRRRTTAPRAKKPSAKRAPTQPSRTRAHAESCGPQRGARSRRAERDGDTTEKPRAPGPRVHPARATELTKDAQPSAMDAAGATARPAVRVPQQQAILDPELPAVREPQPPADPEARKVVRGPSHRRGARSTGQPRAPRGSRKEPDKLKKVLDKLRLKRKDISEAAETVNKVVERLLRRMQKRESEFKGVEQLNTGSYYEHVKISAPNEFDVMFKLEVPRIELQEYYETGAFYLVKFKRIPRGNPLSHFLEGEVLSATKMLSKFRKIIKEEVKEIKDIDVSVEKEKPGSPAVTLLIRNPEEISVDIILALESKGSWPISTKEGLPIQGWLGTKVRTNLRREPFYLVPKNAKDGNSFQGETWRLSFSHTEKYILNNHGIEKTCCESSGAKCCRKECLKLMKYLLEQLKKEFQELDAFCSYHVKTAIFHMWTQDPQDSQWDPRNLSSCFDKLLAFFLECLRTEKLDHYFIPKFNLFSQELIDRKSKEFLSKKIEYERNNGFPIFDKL
Sequence of h-cGAS (Q8N884 whole entry): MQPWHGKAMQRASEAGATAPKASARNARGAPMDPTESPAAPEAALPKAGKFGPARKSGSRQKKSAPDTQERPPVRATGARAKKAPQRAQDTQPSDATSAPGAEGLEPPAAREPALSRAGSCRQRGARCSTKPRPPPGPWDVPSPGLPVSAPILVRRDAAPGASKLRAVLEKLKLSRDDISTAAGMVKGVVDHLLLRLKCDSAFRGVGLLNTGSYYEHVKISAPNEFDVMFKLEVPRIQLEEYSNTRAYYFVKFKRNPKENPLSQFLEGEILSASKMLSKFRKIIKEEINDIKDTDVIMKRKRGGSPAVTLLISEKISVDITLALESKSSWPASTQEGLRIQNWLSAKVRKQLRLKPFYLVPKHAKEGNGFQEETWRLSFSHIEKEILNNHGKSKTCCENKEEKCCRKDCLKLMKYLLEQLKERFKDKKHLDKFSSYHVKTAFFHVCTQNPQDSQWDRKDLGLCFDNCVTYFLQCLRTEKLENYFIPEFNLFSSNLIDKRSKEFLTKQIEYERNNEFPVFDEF

Compound: O=C(CO)N1CCc2[nH]c3c(Cl)c(Cl)ccc3c2C1 [G022, 1-(6,7-dichloro-1,3,4,5-tetrahydro-2H-pyrido[4,3-b]indol-2-yl)-2-hydroxyethan-1-one]
- inhibition of IFNB1 mRNA induction in human THP1 cells (in words) [1]: no inhibition
- IC50 ([2]; IC50 m-cGAS): < 24 nM
- IC50 ([3]; Mus musculus, RAW264.7, Lucia luciferase per Suppl. Fig. 11a,b): 3320 nM

Compound: COc1cc(Cl)c(Cl)c2[nH]c3c(c12)CN(C(=O)CO)CC3 [G098]
- solubility in cell culture media (in words) [5]: limited solubility
- IC50 ([4]; read-out: IC50 h-cGAS): > 39 nM
- fold improvement of h-cGAS IC50 [4]: 2 fold
- IC50 ([2]; read-out: IC50 m-cGAS): < 24 nM

Compound: O=C(CO)N1CCc2[nH]c3c(Cl)c(Cl)cc(-c4cn[nH]c4)c3c2C1 [G108]
- fold reduction of drug inhibition with h-cGAS(Y248F) [6]: 250 fold
- IC50 [7, 17]: 590 nM
- IC50 [7, 18]: 1530 nM
- IC50 ([4]; IC50 h-cGAS): 27.5 nM
- IC50 ([4]; IC50 h-cGAS, in-house synthesized compounds): 28 nM
- fold improvement of h-cGAS IC50 [4]: 4 fold
- IC50 [1, 19]: 3560 nM
- IC50 [1, 20]: 2950 nM
- IC50 [8]: 2270 nM
- LD50, THP1 cells [9]: 56.7 µM
- inhibition at 10 µM ([10]; Homo sapiens, THP-1): 20 to 40%
- off-target inhibition of hpRNA-stimulated RIG-I pathway (in words) [10]: weak off-target inhibition
- IC50 [11]: 26400 nM
- inhibition at 10 µM ([12]; Homo sapiens, THP-1, THP1, 10 µM inhibitor): 20 to 40%
- off-target inhibition of cGAMP-stimulated STING pathway (in words) ([12]; THP1, 10 µM inhibitor): weak off-target inhibition
- IC50 ([2]; IC50 m-cGAS, in-house synthesized compounds): 5150 nM and ≥ 5000 nM
- fold reduction of m-cGAS potency ([2]; relative to G022): 300 fold

Compound: CCN(CC)CCCC(C)Nc1c2ccc(Cl)cc2nc2ccc(OC)cc12 (centres unmarked) [quinacrine]
- IC50 [16]: 3700 nM

Further lines, with some results ahead:

- IC50 ([4]; read-out: IC50 h-cGAS): > 39 nM
- IC50 ([2]; read-out: IC50 m-cGAS): < 24 nM
- IC50 ([3]; Lucia luciferase per Suppl. Fig. 11a,b): 1090 nM
Compound: Cn1c2c(c3ccc(Cl)c(F)c31)CN(C(=O)CO)CC2 [G097]
- inhibition of IFNB1 mRNA induction in human THP1 cells (in words) [1]: no inhibition

- IC50 [7, 17]: 490 nM
- IC50 [7, 18]: 860 nM
- IC50 ([4]; IC50 h-cGAS): 14 nM
- fold improvement of h-cGAS IC50 [4]: 2 fold
- IC50 [1, 19]: 1950 nM
- IC50 [1, 20]: 1700 nM
- IC50 [8]: 1360 nM
- inhibition of adenylyl cyclase (in words) [11]: no inhibition
- IC50 [11]: > 50000 nM
- IC50 ([2]; IC50 m-cGAS): 442 nM
Compound: Cn1ccc(-c2cc(Cl)c(Cl)c3[nH]c4c(c23)CN(C(=O)CO)CC4)n1 [G140]
- LD50, THP1 cells [9]: > 100 µM
- off-target inhibition of hpRNA-stimulated RIG-I pathway (in words) [10]: complete absence of off-target effect
- off-target inhibition of cGAMP-stimulated STING pathway (in words) ([12]; THP1, 10 µM inhibitor): complete absence of off-target effect

- IC50 ([4]; IC50 h-cGAS): 100 nM
- fold improvement of h-cGAS IC50 [4]: 10 fold
- IC50 [1, 20]: 2630 nM
- IC50 [15]: 3580 nM
- IC50 ([2]; IC50 m-cGAS): 60 nM
- fold improvement of m-cGAS IC50 ([2]; relative to the parent compound): 10 fold
Compound: O=C(Nc1cc(-c2ccccc2)ccn1)c1[nH]ncc1[N+](=O)[O-] [J014]
- % Intercalation at 30 µM ([13]; 30 µM): -22.38%
- Polarization ([13]; compound at 30 µM): 277 mP
- LD50, THP1 cells [9]: 28.9 µM
- inhibition with cGAMP instead of dsDNA as activating ligand (in words) [14]: same level of inhibition
- inhibition with cGAMP instead of dsDNA as activating ligand (in words) ([12]; THP1, 5 µM J014): same level of inhibition
